Measured values reported in the kinase profiling compilation of Christmann-Franck et al. (2016).
Blank lines part the entries; values can stand above or below the molecule they belong to.

What was measured:
MAPK10 (human) = MAPK10 (human) (UniProt P53779); assay: SelectScreen, TR FRET; conditions: compound 10.0 µM
CDK1 CCNB1 (human) = CDK1 CCNB1 (human) (UniProt P06493+P14635); assay: SelectScreen, TR FRET; conditions: compound 10.0 µM
AKT1 (human) = AKT1 (human) (UniProt P31749); assay: SelectScreen, TR FRET; conditions: compound 10.0 µM
PLK2 (human) = PLK2 (human) (UniProt Q9NYY3); assay: SelectScreen, TR FRET; conditions: compound 10.0 µM
DYRK1B (human) = DYRK1B (human) (UniProt Q9Y463); assay: SelectScreen, TR FRET; conditions: compound 10.0 µM
INSR (human) = INSR (human) (UniProt P06213); assay: SelectScreen, TR FRET; conditions: compound 10.0 µM
Sequence of INSR (human) (P06213 whole entry, looked up): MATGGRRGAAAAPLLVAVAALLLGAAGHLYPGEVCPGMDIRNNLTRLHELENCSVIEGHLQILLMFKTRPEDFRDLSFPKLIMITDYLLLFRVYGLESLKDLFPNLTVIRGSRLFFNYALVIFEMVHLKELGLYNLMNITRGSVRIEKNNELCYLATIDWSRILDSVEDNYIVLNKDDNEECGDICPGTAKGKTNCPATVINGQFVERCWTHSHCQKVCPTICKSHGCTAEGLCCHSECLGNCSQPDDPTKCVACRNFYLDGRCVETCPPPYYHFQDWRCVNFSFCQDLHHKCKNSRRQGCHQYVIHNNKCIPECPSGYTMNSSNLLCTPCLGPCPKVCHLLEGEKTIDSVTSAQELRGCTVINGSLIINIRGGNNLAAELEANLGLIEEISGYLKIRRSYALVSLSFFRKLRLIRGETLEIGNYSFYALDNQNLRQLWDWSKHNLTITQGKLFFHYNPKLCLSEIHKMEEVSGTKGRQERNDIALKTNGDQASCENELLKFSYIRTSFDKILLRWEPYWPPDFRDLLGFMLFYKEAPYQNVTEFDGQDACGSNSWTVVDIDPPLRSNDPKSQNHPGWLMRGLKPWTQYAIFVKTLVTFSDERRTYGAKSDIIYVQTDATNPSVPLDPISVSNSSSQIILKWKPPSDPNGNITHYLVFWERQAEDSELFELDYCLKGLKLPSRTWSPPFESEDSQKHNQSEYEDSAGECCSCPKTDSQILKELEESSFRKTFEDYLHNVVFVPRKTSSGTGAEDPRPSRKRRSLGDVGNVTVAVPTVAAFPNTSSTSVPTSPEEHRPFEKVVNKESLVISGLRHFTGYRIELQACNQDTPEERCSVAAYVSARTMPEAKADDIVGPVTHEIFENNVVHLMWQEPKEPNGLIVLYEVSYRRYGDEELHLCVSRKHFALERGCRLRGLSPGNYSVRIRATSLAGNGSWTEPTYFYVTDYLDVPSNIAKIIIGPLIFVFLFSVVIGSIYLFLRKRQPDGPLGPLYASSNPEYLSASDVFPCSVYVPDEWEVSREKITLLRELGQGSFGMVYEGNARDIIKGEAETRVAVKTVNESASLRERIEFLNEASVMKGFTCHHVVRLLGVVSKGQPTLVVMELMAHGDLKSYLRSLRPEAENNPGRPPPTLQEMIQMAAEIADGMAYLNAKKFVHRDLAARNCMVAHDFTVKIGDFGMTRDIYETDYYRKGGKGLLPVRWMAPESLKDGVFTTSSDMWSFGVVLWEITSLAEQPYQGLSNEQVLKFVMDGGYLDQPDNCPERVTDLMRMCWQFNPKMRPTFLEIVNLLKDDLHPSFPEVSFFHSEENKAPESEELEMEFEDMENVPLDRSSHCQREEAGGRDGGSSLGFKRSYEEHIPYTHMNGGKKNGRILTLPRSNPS

PLK3 (human) = PLK3 (human) (UniProt Q9H4B4); assay: SelectScreen, TR FRET; conditions: compound 10.0 µM
ERBB4 (human) = ERBB4 (human) (UniProt Q15303); assay: SelectScreen, TR FRET; conditions: compound 10.0 µM
PRKACA (human) = PRKACA (human) (UniProt P17612); assay: SelectScreen, TR FRET; conditions: compound 10.0 µM
STK16 (human) = STK16 (human) (UniProt O75716); assay: SelectScreen, TR FRET; conditions: compound 10.0 µM
CDK5 CDK5R1 p25 (human) = CDK5 CDK5R1 p25 (human) (UniProt Q15078+Q00535); assay: SelectScreen, TR FRET; conditions: compound 10.0 µM
RAF1 (human) = RAF1 (human) (UniProt P04049); assay: SelectScreen, TR FRET; conditions: compound 10.0 µM
Sequence of RAF1 (human) (P04049 whole entry, looked up): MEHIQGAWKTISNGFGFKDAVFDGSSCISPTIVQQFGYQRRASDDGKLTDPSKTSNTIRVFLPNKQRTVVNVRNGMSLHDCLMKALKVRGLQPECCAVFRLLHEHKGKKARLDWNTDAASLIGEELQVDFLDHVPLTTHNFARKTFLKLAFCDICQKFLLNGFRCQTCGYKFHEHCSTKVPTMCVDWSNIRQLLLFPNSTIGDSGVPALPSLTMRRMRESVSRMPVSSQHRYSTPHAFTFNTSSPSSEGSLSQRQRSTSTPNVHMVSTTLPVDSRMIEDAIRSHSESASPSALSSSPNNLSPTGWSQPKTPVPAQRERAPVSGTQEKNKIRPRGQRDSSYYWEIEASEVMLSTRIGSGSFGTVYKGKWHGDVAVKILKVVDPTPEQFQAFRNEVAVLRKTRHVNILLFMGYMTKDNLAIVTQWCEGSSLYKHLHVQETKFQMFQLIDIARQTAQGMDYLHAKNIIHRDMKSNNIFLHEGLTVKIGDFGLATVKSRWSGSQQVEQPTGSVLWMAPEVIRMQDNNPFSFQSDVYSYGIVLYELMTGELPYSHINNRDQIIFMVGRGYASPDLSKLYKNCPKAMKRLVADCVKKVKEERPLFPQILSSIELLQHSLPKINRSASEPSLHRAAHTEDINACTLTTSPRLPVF

MAPK1 (human) = MAPK1 (human) (UniProt P28482); assay: SelectScreen, TR FRET; conditions: compound 10.0 µM
Sequence of MAPK1 (human) (P28482 whole entry, looked up): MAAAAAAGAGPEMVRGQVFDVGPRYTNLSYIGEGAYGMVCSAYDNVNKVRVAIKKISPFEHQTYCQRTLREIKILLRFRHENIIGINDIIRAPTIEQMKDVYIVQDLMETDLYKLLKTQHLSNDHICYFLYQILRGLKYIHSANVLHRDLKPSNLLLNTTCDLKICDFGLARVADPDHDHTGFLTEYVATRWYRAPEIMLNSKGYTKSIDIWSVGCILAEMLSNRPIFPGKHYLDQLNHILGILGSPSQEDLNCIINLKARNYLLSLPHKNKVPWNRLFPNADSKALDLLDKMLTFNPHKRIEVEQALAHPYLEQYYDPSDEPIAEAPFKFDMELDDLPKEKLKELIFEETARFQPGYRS

PIK3CA PIK3R1 (human) = PIK3CA PIK3R1 (human) (UniProt P27986+P42336); assay: SelectScreen, TR FRET; conditions: compound 10.0 µM
Sequence of PIK3CA PIK3R1 (human) (P27986 whole entry, looked up): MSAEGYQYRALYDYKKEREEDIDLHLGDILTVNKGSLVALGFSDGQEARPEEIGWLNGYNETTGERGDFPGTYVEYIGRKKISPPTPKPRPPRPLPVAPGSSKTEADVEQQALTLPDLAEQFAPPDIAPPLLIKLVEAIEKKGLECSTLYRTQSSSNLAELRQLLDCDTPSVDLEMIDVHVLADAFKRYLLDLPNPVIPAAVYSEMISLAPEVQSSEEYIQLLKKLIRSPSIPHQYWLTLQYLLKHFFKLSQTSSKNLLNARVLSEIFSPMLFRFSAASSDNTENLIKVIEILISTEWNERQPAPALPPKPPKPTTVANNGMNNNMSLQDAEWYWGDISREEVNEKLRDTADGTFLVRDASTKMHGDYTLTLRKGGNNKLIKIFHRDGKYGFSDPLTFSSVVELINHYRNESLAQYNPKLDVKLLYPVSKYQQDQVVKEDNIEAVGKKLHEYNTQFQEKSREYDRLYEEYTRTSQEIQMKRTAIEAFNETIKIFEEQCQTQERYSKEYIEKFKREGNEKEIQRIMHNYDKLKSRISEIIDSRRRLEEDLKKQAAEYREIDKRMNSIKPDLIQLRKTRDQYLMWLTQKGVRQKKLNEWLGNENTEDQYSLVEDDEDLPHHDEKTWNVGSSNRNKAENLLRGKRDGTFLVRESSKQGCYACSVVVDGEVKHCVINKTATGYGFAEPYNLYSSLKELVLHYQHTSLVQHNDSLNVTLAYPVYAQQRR
Sequence of PIK3CA PIK3R1 (human) (P42336 whole entry, looked up): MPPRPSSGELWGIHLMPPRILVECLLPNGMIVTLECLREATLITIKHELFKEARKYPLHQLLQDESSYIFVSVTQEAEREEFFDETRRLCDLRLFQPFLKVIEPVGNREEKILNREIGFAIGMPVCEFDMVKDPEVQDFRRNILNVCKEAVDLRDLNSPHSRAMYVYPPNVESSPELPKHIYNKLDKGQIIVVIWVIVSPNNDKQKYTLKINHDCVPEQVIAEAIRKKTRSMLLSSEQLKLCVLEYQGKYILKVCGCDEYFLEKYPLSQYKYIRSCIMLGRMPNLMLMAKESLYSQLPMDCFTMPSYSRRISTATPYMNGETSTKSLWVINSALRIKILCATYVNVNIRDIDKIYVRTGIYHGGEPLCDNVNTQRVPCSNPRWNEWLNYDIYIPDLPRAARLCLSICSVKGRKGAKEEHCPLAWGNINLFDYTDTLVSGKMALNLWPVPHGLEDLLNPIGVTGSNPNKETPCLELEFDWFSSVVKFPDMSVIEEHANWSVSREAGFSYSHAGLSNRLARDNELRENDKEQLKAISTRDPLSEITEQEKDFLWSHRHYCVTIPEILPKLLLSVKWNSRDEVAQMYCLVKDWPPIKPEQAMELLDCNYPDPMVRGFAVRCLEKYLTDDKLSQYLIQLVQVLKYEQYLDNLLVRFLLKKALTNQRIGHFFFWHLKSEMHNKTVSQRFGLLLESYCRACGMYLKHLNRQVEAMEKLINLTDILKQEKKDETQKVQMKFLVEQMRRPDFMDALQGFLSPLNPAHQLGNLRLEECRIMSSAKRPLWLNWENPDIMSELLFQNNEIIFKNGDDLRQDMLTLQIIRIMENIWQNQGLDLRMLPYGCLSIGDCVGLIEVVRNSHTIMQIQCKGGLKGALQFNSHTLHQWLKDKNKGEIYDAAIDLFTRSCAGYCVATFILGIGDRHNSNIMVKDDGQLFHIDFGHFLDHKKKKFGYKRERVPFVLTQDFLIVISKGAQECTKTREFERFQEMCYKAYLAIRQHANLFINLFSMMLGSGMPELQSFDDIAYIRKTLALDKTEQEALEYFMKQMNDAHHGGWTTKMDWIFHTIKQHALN

RIPK2 (human) = RIPK2 (human) (UniProt O43353); assay: SelectScreen, TR FRET; conditions: compound 10.0 µM
CAMK2A (human) = CAMK2A (human) (UniProt Q9UQM7); assay: SelectScreen, TR FRET; conditions: compound 10.0 µM
CLK1 (human) = CLK1 (human) (UniProt P49759); assay: SelectScreen, TR FRET; conditions: compound 10.0 µM
IRAK4 (human) = IRAK4 (human) (UniProt Q9NWZ3); assay: SelectScreen, TR FRET; conditions: compound 10.0 µM
Sequence of IRAK4 (human) (Q9NWZ3 whole entry, looked up): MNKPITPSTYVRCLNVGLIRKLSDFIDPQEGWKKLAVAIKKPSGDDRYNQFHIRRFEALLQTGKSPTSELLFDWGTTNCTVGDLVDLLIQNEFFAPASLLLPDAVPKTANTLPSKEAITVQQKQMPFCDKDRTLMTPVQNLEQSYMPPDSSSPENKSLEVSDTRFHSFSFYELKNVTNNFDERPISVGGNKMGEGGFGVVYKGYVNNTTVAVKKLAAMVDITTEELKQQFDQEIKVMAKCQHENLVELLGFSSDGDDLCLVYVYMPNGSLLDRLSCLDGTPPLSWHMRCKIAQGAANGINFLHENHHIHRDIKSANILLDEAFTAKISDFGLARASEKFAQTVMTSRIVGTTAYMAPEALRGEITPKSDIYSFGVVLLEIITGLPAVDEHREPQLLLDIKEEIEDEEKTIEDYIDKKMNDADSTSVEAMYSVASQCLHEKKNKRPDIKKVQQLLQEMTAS

CDK2 CCNA2 (human) = CDK2 CCNA2 (human) (UniProt P24941+P20248); assay: SelectScreen, TR FRET; conditions: compound 10.0 µM
Sequence of CDK2 CCNA2 (human) (P20248 whole entry, looked up, other chains not shown): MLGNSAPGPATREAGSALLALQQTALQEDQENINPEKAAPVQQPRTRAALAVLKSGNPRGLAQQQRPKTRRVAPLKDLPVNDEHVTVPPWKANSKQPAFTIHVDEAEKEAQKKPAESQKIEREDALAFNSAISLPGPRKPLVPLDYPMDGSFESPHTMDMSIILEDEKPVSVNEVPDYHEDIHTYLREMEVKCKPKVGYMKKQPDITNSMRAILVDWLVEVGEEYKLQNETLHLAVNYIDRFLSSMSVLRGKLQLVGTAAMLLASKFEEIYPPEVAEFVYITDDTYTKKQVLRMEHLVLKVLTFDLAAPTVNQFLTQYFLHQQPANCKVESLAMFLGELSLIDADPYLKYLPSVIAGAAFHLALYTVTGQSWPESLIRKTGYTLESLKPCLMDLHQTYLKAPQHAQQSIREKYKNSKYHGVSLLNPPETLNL

GSK3B (human) = GSK3B (human) (UniProt P49841); assay: SelectScreen, TR FRET; conditions: compound 10.0 µM
PRKCB1 (human) = PRKCB1 (human) (UniProt P05771); assay: SelectScreen, TR FRET; conditions: compound 10.0 µM
PLK1 (human) = PLK1 (human) (UniProt P53350); assay: SelectScreen, TR FRET; conditions: compound 10.0 µM
MAP3K7 TAB1 (human) = MAP3K7 TAB1 (human) (UniProt Q15750+O43318); assay: SelectScreen, TR FRET; conditions: compound 10.0 µM
PAK4 (human) = PAK4 (human) (UniProt O96013); assay: SelectScreen, TR FRET; conditions: compound 10.0 µM
CSF1R (human) [1] = molecular target: CSF1R (human) (UniProt P07333); assay: SelectScreen, TR FRET; conditions: compound 10.0 µM
LRRK2 (human) [2] = molecular target: LRRK2 (human) (UniProt Q5S007); assay: SelectScreen, TR FRET; conditions: compound 10.0 µM
ROCK2 (human) = ROCK2 (human) (UniProt O75116); assay: SelectScreen, TR FRET; conditions: compound 10.0 µM
AURKA (human) = AURKA (human) (UniProt O14965); assay: SelectScreen, TR FRET; conditions: compound 10.0 µM
PDGFRA (human) [3] = molecular target: PDGFRA (human) (UniProt P16234); assay: SelectScreen, TR FRET; conditions: compound 10.0 µM
STK3 (human) = STK3 (human) (UniProt Q13188); assay: SelectScreen, TR FRET; conditions: compound 10.0 µM
MARK2 (human) = MARK2 (human) (UniProt Q7KZI7); assay: SelectScreen, TR FRET; conditions: compound 10.0 µM
JAK1 JH1 JH2 (human) = JAK1 JH1 JH2 (human) (UniProt P23458); assay: SelectScreen, TR FRET; conditions: compound 10.0 µM
RET (human) = RET (human) (UniProt P07949); assay: SelectScreen, TR FRET; conditions: compound 10.0 µM
CHEK1 (human) = CHEK1 (human) (UniProt O14757); assay: SelectScreen, TR FRET; conditions: compound 10.0 µM
ABL1 (human) = ABL1 (human) (UniProt P00519); assay: SelectScreen, TR FRET; conditions: compound 10.0 µM
FLT3 (human) = FLT3 (human) (UniProt P36888); assay: SelectScreen, TR FRET; conditions: compound 10.0 µM
LCK (human) = LCK (human) (UniProt P06239); assay: SelectScreen, TR FRET; conditions: compound 10.0 µM
TTK (human) = TTK (human) (UniProt P33981); assay: SelectScreen, TR FRET; conditions: compound 10.0 µM
SYK (human) = SYK (human) (UniProt P43405); assay: SelectScreen, TR FRET; conditions: compound 10.0 µM
PTK2B (human) = PTK2B (human) (UniProt Q14289); assay: SelectScreen, TR FRET; conditions: compound 10.0 µM
CSF1R (human) [4] = molecular target: CSF1R (human) (UniProt P07333); assay: HTRF
LRRK2 (human) [5] = molecular target: LRRK2 (human) (UniProt Q5S007); assay: HTRF
PDGFRA (human) [6] = molecular target: PDGFRA (human) (UniProt P16234); assay: HTRF
[7] = molecular target: LRRK2 (human), Q5S007 [G2019S]; assay: HTRF

SMILES: C[C@@H](Nc1c(C(N)=O)nnc2cc(-c3ccc(S(C)(=O)=O)cc3)ccc12)C1CC1
inhibition (MAPK10 (human)): 20.5%
inhibition (CDK1 CCNB1 (human)): -2.77%
inhibition (AKT1 (human)): 4.06%
inhibition (PLK2 (human)): 17.2%
inhibition (DYRK1B (human)): 2.7%
inhibition (INSR (human)): 0.279%
inhibition (PLK3 (human)): 4.63%
inhibition (ERBB4 (human)): 11.7%
inhibition (PRKACA (human)): -0.763%
inhibition (STK16 (human)): -47.1%
inhibition (CDK5 CDK5R1 p25 (human)): -16.4%
inhibition (RAF1 (human)): 21.3%
inhibition (MAPK1 (human)): -52.2%
inhibition (PIK3CA PIK3R1 (human)): 9.68%
inhibition (RIPK2 (human)): 28.4%
inhibition (CAMK2A (human)): 14.6%
inhibition (CLK1 (human)): 5.47%
inhibition (IRAK4 (human)): 0.691%
inhibition (CDK2 CCNA2 (human)): -48.5%
inhibition (GSK3B (human)): 28.6%
inhibition (PRKCB1 (human)): 0.123%
inhibition (PLK1 (human)): 1.06%

SMILES: CC(C)Nc1c(C(N)=O)cnc2cc(-c3ccc(S(C)(=O)=O)cc3)ccc12
inhibition (MAPK10 (human)): 4.17%
inhibition (CDK1 CCNB1 (human)): 1.38%
inhibition (AKT1 (human)): 4.75%
inhibition (PLK2 (human)): 7.12%
inhibition (DYRK1B (human)): 9.19%
inhibition (INSR (human)): 3.68%
inhibition (PLK3 (human)): 0.957%
inhibition (PRKACA (human)): 5.91%
inhibition (CDK5 CDK5R1 p25 (human)): 2.45%
inhibition (RAF1 (human)): 16.7%
inhibition (PIK3CA PIK3R1 (human)): -1.65%
inhibition (CAMK2A (human)): -0.0898%
inhibition (CLK1 (human)): 1.75%
inhibition (GSK3B (human)): 6.45%
inhibition (PRKCB1 (human)): 8.27%
inhibition (PLK1 (human)): 0.631%

SMILES: CS(=O)(=O)c1ccc(-c2ccc3c(NC4CCC4)c(C(N)=O)nnc3c2)cc1
inhibition (CDK1 CCNB1 (human)): 7.35%
inhibition (AKT1 (human)): 4.88%
inhibition (PLK2 (human)): 10.6%
inhibition (INSR (human)): 7.17%
inhibition (PLK3 (human)): 9.8%
inhibition (ERBB4 (human)): 3.89%
inhibition (PRKACA (human)): 0.0814%
inhibition (CDK5 CDK5R1 p25 (human)): -0.613%
inhibition (MAPK1 (human)): 2.96%
inhibition (PIK3CA PIK3R1 (human)): 1.77%
inhibition (CAMK2A (human)): 10.5%
inhibition (CLK1 (human)): 13.7%
inhibition (IRAK4 (human)): -6.26%
inhibition (CDK2 CCNA2 (human)): 2.69%
inhibition (PRKCB1 (human)): -1.63%
inhibition (PLK1 (human)): 13.7%

Continued, values first:

inhibition (MAP3K7 TAB1 (human)): 67.1%
inhibition (PAK4 (human)): 59.5%
inhibition (MAPK10 (human)): 16.6%
inhibition (CDK1 CCNB1 (human)): 2.62%
inhibition (CSF1R (human) [1]): 97.3%
inhibition (AKT1 (human)): 1.33%
inhibition (LRRK2 (human) [2]): 98.6%
inhibition (PLK2 (human)): 5.59%
inhibition (DYRK1B (human)): 6.79%
inhibition (INSR (human)): -0.801%
inhibition (PLK3 (human)): -15.6%
inhibition (ERBB4 (human)): 14.7%
inhibition (PRKACA (human)): -1.97%
inhibition (STK16 (human)): 39.9%
inhibition (CDK5 CDK5R1 p25 (human)): 3.19%
inhibition (ROCK2 (human)): 78%
inhibition (AURKA (human)): 80.8%
inhibition (PDGFRA (human) [3]): 97.5%
inhibition (STK3 (human)): 41.9%
inhibition (MARK2 (human)): 80.5%
inhibition (JAK1 JH1 JH2 (human)): 72.3%
inhibition (RET (human)): 82.8%
inhibition (RAF1 (human)): 27%
inhibition (MAPK1 (human)): -5.26%
inhibition (PIK3CA PIK3R1 (human)): 15.2%
inhibition (RIPK2 (human)): 44.4%
inhibition (CAMK2A (human)): 17.4%
inhibition (CLK1 (human)): 4.04%
inhibition (CHEK1 (human)): 93.2%
inhibition (ABL1 (human)): 55.5%
inhibition (IRAK4 (human)): 17.5%
inhibition (FLT3 (human)): 98.9%
inhibition (LCK (human)): 74.7%
inhibition (TTK (human)): 66.6%
inhibition (SYK (human)): 81.4%
inhibition (CDK2 CCNA2 (human)): 5.12%
inhibition (PTK2B (human)): 38.9%
inhibition (GSK3B (human)): 42.2%
inhibition (PRKCB1 (human)): -0.227%
inhibition (PLK1 (human)): 3.31%
IC50 (CSF1R (human) [4]): 22 nM
IC50 (LRRK2 (human) [5]): 9 nM
IC50 (PDGFRA (human) [6]): 262 nM
IC50 [7]: 12 nM
SMILES: CC(C)Nc1c(C(N)=O)nnc2cc(-c3ccc(N4CCOCC4)cc3)ccc12

inhibition (INSR (human)): 13.3%
inhibition (ERBB4 (human)): 20.6%
SMILES: CC(C)Nc1c(C(N)=O)nnc2ccc(-c3ccncc3)cc12

inhibition (AKT1 (human)): 12.7%
inhibition (PLK3 (human)): -0.393%
inhibition (ERBB4 (human)): 22.3%
inhibition (MAPK1 (human)): 22.7%
inhibition (CAMK2A (human)): 13.6%
inhibition (PLK1 (human)): 33.4%
SMILES: CC(C)Nc1c(C(N)=O)nnc2cc(-c3ccncc3)ccc12
